Where a name gives a salt, the structure may show the parent alone.

The results in this text go back to patent publication US20260053861A1, “CELL COMPOSITIONS AND METHODS OF USING THE SAME” (THE REGENTS OF THE UNIVERSITY OF CALIFORNIA, priority 2022, published 2026).

In the first experiment the test system is hPSC-SCs.
Conditions: not given
Turning to `CN(C)CCOC(=O)COc1ccc(Cl)cc1` [Meclofenoxate hydrochloride], the z.score.t is given as −2.264.

Consider `CCC1(c2cccc(O)c2)CCCCN(C)C1` (centres unmarked) [Meptazinol hydrochloride], for which the z.score.t worked out at 0.01078. The same measure, in the same setting: next, `COC(=O)Nc1nc2ccc(SC(C)C)cc2[nH]1` [Methiazole]: −1.263. Same read-out and setting: the value for `COc1ccc2[nH]c3c(c2c1)CCN=C3C` [Methoxy-6-harmalan] was −0.1216. On the same count and under the same terms, the value for `Cc1cc(C(C)(C)CC(C)(C)C)ccc1OCCOCC[N+](C)(C)Cc1ccccc1.[Cl-]` [Methyl benzethonium chloride] was −1.169.

On to `CC[C@@H](CO)NC(=O)[C@@H]1C=C2c3cccc4[nH]cc(c34)C[C@H]2N(C)C1` [Methylergometrine maleate], for which the z.score.t stood at 1.669. In turn, `C[C@H]1NC(=O)NC1=O` [Methylhydantoin-5-(D)] yielded a z.score.t of −0.9395.

`C[C@@H]1NC(=O)NC1=O` [Methylhydantoin-5-(L)] registered a z.score.t of 1.101.

Staying with this experiment, now noted: HTS viability of hPSC-SCs in the presence of 30 mM glucose; Prestwick library; Table S4.
With `NCc1ccc(S(N)(=O)=O)cc1` [Mafenide hydrochloride], the z.score.t is −0.4019. Turning to `CNCCCC12CCC(c3ccccc31)c1ccccc12` [Maprotiline hydrochloride], the z.score.t is recorded as −0.865.

As to `COC(=O)Nc1nc2ccc(C(=O)c3ccccc3)cc2[nH]1` [Mebendazole], the z.score.t was −1.584. Same read-out and setting: the value for `CCN(CCCCOC(=O)c1ccc(OC)c(OC)c1)C(C)Cc1ccc(OC)cc1` (centres unmarked) [Mebeverine hydrochloride] was −0.3301. Turning to `CN1CCc2c(c3ccccc3n2Cc2ccccc2)C1.O=S(=O)(O)c1cccc2c(S(=O)(=O)O)cccc12` [Mebhydroline 1,5-naphtalenedisulfonate], the z.score.t worked out at 0.7312. Consider `CNC1(C)C2CCC(C2)C1(C)C` (centres unmarked) [Mecamylamine hydrochloride], for which the z.score.t is on record as 0.3097. `C=C1c2c(Cl)ccc(O)c2C(=O)C2=C(O)[C@]3(O)C(=O)C(C(N)=O)=C(O)[C@@H](N(C)C)[C@@H]3[C@@H](O)[C@H]12.O=C(O)c1cc(S(=O)(=O)O)ccc1O` [Meclocycline sulfosalicylate]: the z.score.t was found to be 1.049. Take `Cc1cccc(CN2CCN(C(c3ccccc3)c3ccc(Cl)cc3)CC2)c1` (centres unmarked) [Meclozine dihydrochloride]: the z.score.t was −1.823. For the compound `CC(=O)[C@H]1CC[C@H]2[C@@H]3C[C@H](C)C4=CC(=O)CC[C@]4(C)[C@H]3[C@@H](O)C[C@]12C` [Medrysone], the z.score.t is reported as 0.1244.

For the compound `Cc1cccc(Nc2ccccc2C(=O)O)c1C` [Mefenamic acid], the z.score.t is listed as 1.751. With `CCN(CC)CCNC(=O)COc1ccc(OC)cc1` [Mefexamide hydrochloride], the z.score.t amounted to 0.189. With `OC(c1cc(C(F)(F)F)nc2c(C(F)(F)F)cccc12)C1CCCCN1` (centres unmarked) [Mefloquine hydrochloride], the z.score.t is −1.637. The same measure, in the same setting: the value for `CNC[C@H](O)[C@@H](O)[C@H](O)[C@H](O)CO` [Meglumine] was −0.9741; that for `COc1ccc2[nH]cc(CCNC(C)=O)c2c1` [Melatonin] was 0.006455.

Take `Cc1cnc(NC(=O)C2=C(O)c3ccccc3S(=O)(=O)N2C)s1` [Meloxicam]: the z.score.t was found to be 1.481. On the same count and under the same terms, next, `CC12CC3CC(C)(C1)CC(N)(C3)C2` [Memantine Hydrochloride]: −0.9598; `CC1=CC(=O)c2ccccc2C1=O` [Menadione]: −1.949; `C[N+]1(C)CCCC(OC(=O)C(O)(c2ccccc2)c2ccccc2)C1` (centres unmarked) [Mepenzolate bromide]: 0.03421. Still for that read-out and setting: next, `Cc1ccccc1OCC(O)CO` (centres unmarked) [Mephenesin]: −1.753; `CCC1(c2ccccc2)NC(=O)N(C)C1=O` (centres unmarked) [Mephenytoin]: −0.9817. Still for that read-out and setting: next, `CCCNC(C)(C)COC(=O)c1ccccc1` [Meprylcaine hydrochloride]: −0.4953; `Nc1ccc(O)c(C(=O)O)c1` [Mesalamine]: −0.5745; `CN1CCCCC1CCN1c2ccccc2Sc2ccc([S+](C)[O-])cc21` (centres unmarked) [Mesoridazine besylate]: 0.2816. Regarding `C=N[C@@H](C(=O)N[C@@H]1C(=O)N2[C@@H]1SC(C)(C)[C@@H]2C(=O)O)c1ccccc1` [Metampicillin sodium salt], the z.score.t is given as −1.069.

Turning to `CNCC(O)c1ccc(O)c(OC)c1.Cl` (stereo not drawn) [Metanephrine hydrochloride DL], the z.score.t came out at 1.259. On the same count and under the same terms, next, `C[C@H](N)[C@H](O)c1cccc(O)c1` [Metaraminol bitartrate]: 1.088; `CN1C[C@H](CNC(=O)OCc2ccccc2)C[C@@H]2c3cccc4c3c(cn4C)C[C@H]21` [Metergoline]: 1.211; `CN(C)C(=N)N=C(N)N` [Metformin hydrochloride]: 0.8639. On to `CC(=O)OC(C)C[N+](C)(C)C` (centres unmarked) [Methacholine chloride], for which the z.score.t stood at 1.554.

Take `C=C1c2cccc(O)c2C(=O)C2=C(O)[C@]3(O)C(=O)C(C(N)=O)=C(O)[C@@H](N(C)C)[C@@H]3[C@@H](O)[C@H]12` [Methacycline hydrochloride]: the z.score.t is reported as −0.4684.

Take `CC[N+](C)(CC)CCOC(=O)C1c2ccccc2Oc2ccccc21` [Methantheline bromide]: the z.score.t is reported as −0.3173.

On to `CN(C)CCN(Cc1cccs1)c1ccccn1` [Methapyrilene hydrochloride], for which the z.score.t was 0.1344. As for `CC(=O)/N=c1/sc(S(N)(=O)=O)nn1C` [Methazolamide], the z.score.t is −0.3678.

Consider `Cn1cc[nH]c1=S` [Methimazole], for which the z.score.t is on record as −0.05622. Still for that read-out and setting: next, `CS(=N)(=O)CC[C@H](N)C(=O)O` (some centres unmarked) [Methionine sulfoximine (L)]: 1.124. Still for that read-out and setting: next, `CSc1ccc2c(c1)C(N1CCN(C)CC1)Cc1ccccc1S2.O=C(O)/C=C\C(=O)O` (centres unmarked) [Methiothepin maleate]: −0.8821; `COc1ccccc1OCC(O)COC(N)=O` (centres unmarked) [Methocarbamol]: −1.392.

Take `CN(Cc1cnc2nc(N)nc(N)c2n1)c1ccc(C(=O)N[C@@H](CCC(=O)O)C(=O)O)cc1` [Methotrexate]: the z.score.t was 0.8875. For `COc1ccc2c(c1)N(C[C@H](C)CN(C)C)c1ccccc1S2.O=C(O)/C=C\C(=O)O` [Methotrimeprazine maleat salt], the z.score.t is −1.008. `COc1ccc(OC)c(C(O)C(C)N)c1` (centres unmarked) [Methoxamine hydrochloride]: the z.score.t is given as 1.064.

For the compound `COc1c2occc2cc2ccc(=O)oc12` [Methoxy-8-psoralen], the z.score.t is 1.124. Regarding `C[N+]1(C)[C@@H]2CC[C@H]1C[C@@H](OC(=O)C(CO)c1ccccc1)C2` (some centres unmarked) [Methylatropine nitrate], the z.score.t stood at 1.238.

For `C[C@](N)(Cc1ccc(O)c(O)c1)C(=O)O` [Methyldopa (L, −)], the z.score.t is listed as 0.006455. On to `CCOC(=O)[C@@](C)(N)Cc1ccc(O)c(O)c1` [Methyldopate hydrochloride], for which the z.score.t is given as −0.8464. Same read-out and setting: next, `C[C@H]1C[C@@H]2[C@H]([C@@H](O)C[C@@]3(C)[C@H]2CC[C@]3(O)C(=O)CO)[C@@]2(C)C=CC(=O)C=C12` [Methylprednisolone, 6-alpha]: 0.7665. Regarding `Cc1cc2c(cc1S(N)(=O)=O)S(=O)(=O)CCC2` [Meticrane], the z.score.t was −0.3156.

Regarding `CN1CCCC(CC2c3ccccc3Sc3ccccc32)C1` (centres unmarked) [Metixene hydrochloride], the z.score.t is recorded as −0.9654. The same measure, in the same setting: the value for `CCN(CC)CCNC(=O)c1cc(Cl)c(N)cc1OC` [Metoclopramide monohydrochloride] was 1.024. In the case of `Cc1ccccc1N1C(=O)c2cc(S(N)(=O)=O)c(Cl)cc2NC1C` (centres unmarked) [Metolazone], the z.score.t was determined as 0.3637. For `CC(=O)Nc1c(I)c(C(=O)N[C@H]2C(O)O[C@H](CO)[C@@H](O)[C@@H]2O)c(I)c(N(C)C(C)=O)c1I` (some centres unmarked) [Metrizamide], the z.score.t is on record as 1.421. As to `Cc1ncc([N+](=O)[O-])n1CCO` [Metronidazole], the z.score.t is 1.259. `CC(C)(C(=O)c1cccnc1)c1cccnc1` [Metyrapone]: the z.score.t amounted to 1.178. In the case of `C[C@@]1(O)CCOC(=O)C1` [Mevalonic-D, L acid lactone], the z.score.t is recorded as 0.2361. Take `Cc1cccc(C)c1OCC(C)N` (centres unmarked) [Mexiletine hydrochloride]: the z.score.t is listed as 0.6648. Same read-out and setting: the value for `CN1CCN2c3ccccc3Cc3ccccc3C2C1` (centres unmarked) [Mianserine hydrochloride] was 0.8279; that for `Clc1ccc(COC(Cn2ccnc2)c2ccc(Cl)cc2Cl)c(Cl)c1` (centres unmarked) [Miconazole] was −1.873. The same measure, in the same setting: the value for `COc1ccc(OC)c(C(O)CNC(=O)CN)c1` (centres unmarked) [Midodrine hydrochloride] was 0.5856; that for `CC#C[C@]1(O)CC[C@H]2[C@@H]3CCC4=CC(=O)CCC4=C3[C@@H](c3ccc(N(C)C)cc3)C[C@@]21C` [Mifepristone] was −0.8392. Same read-out and setting: next, `Cc1[nH]c(=O)c(C#N)cc1-c1ccncc1` [Milrinone]: 0.3236; `NC(Cn1ccc(=O)c(O)c1)C(=O)O` (centres unmarked) [Mimosine]: 0.7491; `Cc1cc(-c2ccccc2)nnc1NCCN1CCOCC1` [Minaprine dihydrochloride]: −0.5003. On to `CN(C)c1ccc(O)c2c1C[C@H]1C[C@H]3[C@H](N(C)C)C(O)=C(C(N)=O)C(=O)[C@@]3(O)C(O)=C1C2=O` [Minocycline hydrochloride], for which the z.score.t was −1.319. For the compound `Nc1cc(N2CCCCC2)nc(N)[n+]1[O-]` [Minoxidil], the z.score.t is 0.2479. `O=C1c2c(O)ccc(O)c2C(=O)c2c(NCCNCCO)ccc(NCCNCCO)c21` [Mitoxantrone dihydrochloride]: the z.score.t is −0.3936. On the same count and under the same terms, next, `O=C(NCCN1CCOCC1)c1ccc(Cl)cc1` [Moclobemide]: 0.5822; `CCc1c(C)[nH]c2c1C(=O)C(CN1CCOCC1)CC2` (centres unmarked) [Molindone hydrochloride]: −0.1759.
